“Also recorded” adds a separate entry of the source.
Legend:
[1] = Indirect calorimetry (Oxymax): VO2, VCO2, RER, heat, activity; format: in vivo, C57Bl/6 mice
Method: (§1) Each mouse was weighed weekly and the blood glucose levels assessed at random times every second week alternating with rectal temperatures. Intraperitoneal Glucose Tolerance Testing (IPGTT) was carried out at week 5 and 21 using 2g glucose/kg dose. Insulin Tolerance Testing (ITT) was carried at week 2 (0.33 U/kg) and week 6 (0.50 U/kg). Glucose Stimulated Insulin Secretion (GSIS)(3g glucose/kg) was studied out at week 7. Food intake studies were carried out at weeks 0, 4, 8 and 25. Indirect calorimetry was performed using the Oxymax System (Columbus Instruments, Columbus, Ohio) at weeks 0, 4, 8 and 25. Measurements were taken over a 12-hour light cycle and a 12-hour dark cycle.
Mice were placed with ad libitum food and water in separate chambers in an 8 chamber, indirect open circuit calorimeter (Columbus Oxymax Respirometer 0246-002M, Columbus Instruments Ohio USA) for 36-48 hours. This machine obtains periodic measurements of the percentage of oxygen and carbon dioxide in the test chamber. Changes in gas concentrations are used to calculate the rate of oxygen consumption (VO2) and carbon dioxide production (VCO2) per mouse, with a readout every 27 minutes (Oxymax Software 0246-102M). The software calculates heat production per mouse and the respiratory exchange ratio (RER) (VCO2/VO2) using VO2 and VCO2. Activity levels were simultaneously measured in 2 dimensions (Opto-M3 activity meter) using […] wavelength light beams. Ambulatory movements were registered when more than one light beams in the same axis were crossed by an animal in a given period of time. The last 24 hours of data were analysed to allow for an acclimatisation period.
The hourly mean VO2 and VCO2 (mL/hr/kg total body weight) were calculated by averaging the VO2 and VCO2 readings produced by the Oxymax software for each hour. VO2 and VCO2 per unit of lean body mass (VXX2LM) was calculated from the Oxymax results (VXX2) using the following equation: […]
The hourly mean RER and the total, light and dark RER were calculated in a similar manner to VO2 and VCO2. No adjustment for body weight was required.
Heat (total energy expenditure, kcal/hr/mouse) was calculated by the Oxymax software using the formula:
Heat=CV (calorific value)*VO2 where CV=3.815+(1.232*RER)
The hourly mean heat production and the total, light and dark heat production were calculated in a similar manner to VO2 and VCO2. Heat production per unit of lean body mass was calculated by dividing the Oxymax reading by unit of lean body mass.
To quantify activity levels, the total number of ambulatory movements in the x axis and the y axis was calculated per unit time for each mouse.
Oxymax data were analysed using t-tests.

[2] = Body weight of mice on high fat diet with DFS; format: in vivo, C57Bl/6 mice; conditions: Studies 1-4, vs control mice, from about 3 to about 10 weeks after commencement
Method: Four studies were performed using C57Bl/6 mice. Study 1 included 30 control mice and 30 mice administered DFS. Study 2 included 30 control mice and 30 mice administered DFS. Study 3 included 8 control mice and 8 mice administered DFS. Study 4 included 18 control mice and 18 mice administered DFS. Mice in Study 3 differed to those in studies 1 and 2 in so far as they were sourced from different colonies.
Mice were randomly separated equally into a treatment group receiving Deferasirox (DFS) or a control group (CON). DFS was powdered using a mortar and pestle and mixed in thoroughly with the dry mineral mix prior to the addition of melted lard and then left to harden overnight in the refrigerator to form high-fat diet (HFD). From 6 weeks of age for up to 25 weeks, the mice were then fed ad libitum this HFD, from which 45% of their calories were derived from animal lard.
as §1, with “Indirect calorimetry was performed using the Oxymax System (Columbus Instruments, Columbus, Ohio) at weeks 0, 4, 8 and 25. Measurements were taken over a 12-hour light cycle and a 12-hour dark cycle.” left out

[3] = Weight of visceral, white and brown adipose tissue; format: in vivo, C57Bl/6 mice; conditions: high fat diet, vs control mice
Food intake studies = format: in vivo, C57Bl/6 mice
Method: as §1

[4] = Fasting plasma insulin and glucose stimulated insulin secretion (GSIS); format: in vivo, C57Bl/6 mice
Method: as §1
(§2) Plasma insulin was measured with ELISA kits. Liver transaminases and plasma lipids were performed by Sydpath Pathology, St Vincent's Hospital. Liver triglycerides were extracted using methanol/chloroform 2:1 and detected using colorimetric assay.

[5] = Blood glucose levels assessed at random times; format: in vivo, C57Bl/6 mice; conditions: over 9 weeks of high fat diet, vs CON mice
Method: as §1

[6] = Intraperitoneal glucose tolerance test; format: in vivo, C57Bl/6 mice; conditions: 2 g glucose/kg i.p., vs CON mice
Method: as §1
Mice were fasted overnight for 16 hours. Glucose was administered at a dose of 2g/kg by intraperitoneal injection in the form of a 20% dextrose solution. Blood glucose was measured via glucometer (Accucheck Advantage II, Roche, Australia) prior to, and at 15, 30, 60, 90 and 120 minutes after the dextrose injection.
Mice were fasted for 6 hours before intraperitoneal administration of glucose (2 g/kg dose) in sterile water. Blood glucose was measured by glucometer at the times indicated.

Insulin tolerance test = format: in vivo, C57Bl/6 mice
Method: as §1
Mice were fasted overnight for 16 hours. Insulin was injected at 0.5 units per kg (diluted in 1× PBS with 1% bovine serum albumin) by intraperitoneal injection. Blood glucose was measured via glucometer prior to, and at 10, 20, 30, 45 and 60 minutes after the insulin injection.

[7] = HFD-induced hepatic lipid accumulation (steatosis); format: in vivo, C57Bl/6 mice; conditions: 10 weeks on HFD, vs CON mice, data not shown
Method: (§3) Mice livers were fixed in 10% buffered formaldehyde, embedded in paraffin and slides were prepared using standard haematoxylin and eosin as well as Perl staining to visualize hepatic iron.
as §2

Iron levels in the liver = format: in vivo, C57Bl/6 mice; conditions: vs CON mice, data not shown
Method: as §3

HIF-1α = assay: Western blot of liver lysates for HIF-1α; format: in vivo, C57Bl/6 mice; conditions: vs control
Method: Fresh tissues were removed rapidly from culled animals and kept frozen in the −80° C. freezer. They were then homogenized in lysis buffer and sonicated in cold RIPA buffer ([…] pH 7.4, 1% NP40, 0.25% sodium deoxycholate, […], 1 mM EDTA, 1 mM PMSF and protease inhibitor cocktail). 121 μg of protein sample was resolved on an 8% SDS PAGE gel. Proteins were transferred onto nitrocellulose membrane. Primary antibodies (HIF-1α, and (β-tubulin) were prepared in milk buffers at concentrations of 1:500 and 1:2000 respectively and the membrane was incubated overnight at 4° C. Membranes were then rinsed with Phosphate Buffered Solution containing Tween and HRP-conjugated secondary antibodies (at 1:1000 dilution). Proteins were visualised using enhanced chemiluminescence.

[8] = tested on: AKT2, IRS1, IRS2, PFK, GLUT2, HSL, LPL; assay: Liver gene expression by quantitative real-time PCR; format: in vivo, C57Bl/6 mice; conditions: vs control
Source text: Tissues were homogenized in extraction buffer and RNA was isolated according to the RNeasy Kit protocol. […] The level of mRNA for each gene was normalized to the level of TATA box binding-protein (TBP) mRNA in each sample.

[9] = Blood and liver safety parameters (haemoglobin, white blood counts, transaminases, serum iron); format: in vivo, C57Bl/6 mice; conditions: vs control mice
Method: as §2

[10] = Body weight of ob/ob mice on chow diet with DFS; format: in vivo; conditions: vs control ob/ob mice
Method: Studies were also performed using ob/ob mice, in particular, 5 ob/ob controls and 5ob/ob mice administered DFS. Wild type C57bl/6 mice were also used as controls, 4 untreated and 4 administered DFS.

Question: For CC(=O)N(O)CCCCCNC(=O)CCC(=O)N(O)CCCCCNC(=O)CCC(=O)N(O)CCCCCN [DFO], which “metabolism in a subject” value ([1]; summary statement of the inventors' work) is on record?
Answer: capable of increasing metabolism

Question: Which results are given for O=C(O)c1ccc(-n2nc(-c3ccccc3O)nc2-c2ccccc2O)cc1 [DFS, 4-[3,5-Bis (2-hydroxyphenyl)-1H-1,2,4-triazol-1-yl]-benzoic acid]?
Answer: body weight / weight gain [2]: significantly reduced body weights; also recorded: decreases weight gain; oxygen consumption (VO2) ([1]; after 8 weeks of high fat diet and DFS, vs control mice): significantly increased; also recorded: consume significantly more oxygen than control mice; oxygen consumption (VO2) ([1]; after 25 weeks of high fat diet and DFS, vs control mice): significantly increased; also recorded: consume significantly more oxygen than control mice; metabolic rate ([1]; high fat diet, vs control mice): significantly higher metabolic rate; respiratory exchange ratio (RER) (VCO2/VO2) ([1]; high fat diet, vs control mice): significantly reduced; energy expenditure (EE) or heat production ([1]; over a day, high fat diet, vs control mice): significantly higher energy expenditure; oxygen consumption (VO2) / baseline metabolic rate ([1]; week 0 (initial week of high fat diet and DFS), vs control mice): similar; also recorded: no significant difference; CO2 production ([1]; week 8 of continuous DFS treatment, vs control mice): significantly increased; CO2 production ([1]; week 25 of continuous DFS treatment, vs control mice): significantly increased; weight of brown adipose tissue (BAT) [3]: unchanged; weight of visceral adipose tissue (VAT) [3]: reduced; also recorded: significantly lighter; weight of white adipose tissue (WAT) [3]: reduced; also recorded: significantly lighter; food consumed adjusted per body weight (Food intake studies; by 25 weeks, HFD, vs CON mice): eaten more HFD adjusted per body weight; also recorded: consumed significantly more food per gram of body weight; feed intake (Food intake studies; week 0, vs CON animals): did not differ; mean fasting insulin levels vs control ([4]; high fat diet, p<0.005): significantly lower; fasting insulin levels ([4]; high fat diet, mean + SEM, p=0.005 vs control): 2837+874 pmol/L; glucose stimulated insulin secretion (GSIS) profile ([4]; week 7, 3 g glucose/kg, vs control): better preservation; blood glucose levels at random times [5]: generally had lower blood glucose levels; also recorded: significantly lower blood glucose levels; glucose tolerance ([6]; 21 weeks of high fat diet): continued beyond at least week 21; also recorded: significantly improved insulin tolerance; glucose tolerance ([6]; five weeks of high fat diet): significantly better glucose tolerance; also recorded: significantly improved glucose tolerance; insulin tolerance (ITT) (Insulin tolerance test; following five weeks of high fat diet, vs CON mice): performed significantly better; also recorded: significantly improved insulin tolerance; proportion of animals with glucoses <2 mmol/L (Insulin tolerance test; vs 38% of controls, p<0.001, indicating improved insulin sensitivity, data not shown): About 80%; macroscopic hepatic steatosis [7]: relatively protected; liver iron levels (Iron levels in the liver): lower iron levels; level of HIF-1α relative to β-tubulin (HIF-1α): increased HIF-1α; also recorded: higher levels of HIF-1α; AKT2 gene expression ([8]; normalized to TBP mRNA): significantly increased; IRS1 gene expression ([8]; normalized to TBP mRNA): significantly increased; also recorded: increased expression; IRS2 gene expression ([8]; normalized to TBP mRNA): significantly increased; PFK gene expression ([8]; normalized to TBP mRNA): significantly increased; GLUT2 expression [8]: trend for improved; hormone sensitive lipase (HSL) gene expression [8]: significantly increased; also recorded: increased expression; lipoprotein lipase (LPL) gene expression [8]: significantly increased; also recorded: increased expression; haemoglobin levels / anaemia [9]: does not result in anaemia; also recorded: No significant difference; serum alanine transaminase levels [9]: No significant difference; serum aspartate aminotransferase levels [9]: No significant difference; serum iron levels [9]: No significant difference; significantly reduced liver function [9]: does not result in; white blood counts [9]: No significant difference; weight gained over an eight week period ([10]; ob/ob mice on chow diet, p<0.0005): significantly lower; also recorded: gained significantly less weight; body weight ([10]; ob/ob mice on normal chow diet): reduced body weight (or reduced body weight increase)
